The structures appear in SMILES notation. pEC50: −log10 of the molar value.

The target in the first experiment is T1, Bcl-2-related protein A1 (Homo sapiens, UniProt Q16548).
T1 sequence (Q16548 whole entry): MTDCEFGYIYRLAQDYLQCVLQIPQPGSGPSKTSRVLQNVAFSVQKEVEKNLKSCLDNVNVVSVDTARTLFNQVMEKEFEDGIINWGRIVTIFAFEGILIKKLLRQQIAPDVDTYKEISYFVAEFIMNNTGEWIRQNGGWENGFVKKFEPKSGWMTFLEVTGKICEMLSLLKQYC
In words: Bfl-1/Bim complex disruptors – biochemical, multiplexed, bead-based flow cytometry, dose response (AID 1320). The settings on record: inactive by the depositor's call; pH 7.4; 4 °C.
With `CCN1C(=O)/C(=C\C=C2/C=CC=CN2CC)SC1=S` [SMR000225150], the pEC50 (commonly −log10 of the EC50, conventionally taken in molar units) was 5.40.
`CNc1ccc(Br)cc(C(=O)/C=C/c2ccc(OC)cc2)c1=O` [SMR000229850] showed a pEC50 of 4.82.
In the case of `CCN(CC)c1ccc(NC(=O)c2ccccc2F)cc1S(=O)(=O)Nc1ccccc1OC` [SMR000241522], the negative logarithm of the EC50 (pEC50) is 4.91.
In the case of `O=C1c2ccccc2-c2onc3ccc(N4CCCC4)c1c23` [SMR000279741], the negative logarithm of the EC50 (pEC50) is 4.61.
In turn, `COc1ccccc1-n1c(-c2cc(-c3ccc(F)cc3)[nH]n2)n[nH]c1=S` [SMR000293072] gave a negative-log EC50 (pEC50) of 5.30.
`COc1cc(OC)c([N+](=O)[O-])cc1[CH+][N-]NC(=O)c1ccncc1` [SMR000306621] had a pEC50 of 4.37.
With `O=c1c2c(-c3ccccc3)csc2nc2c3ccccc3c(NCCN3CCOCC3)nn12` [SMR000352519], the negative logarithm of the EC50 (pEC50) is 4.52. The pEC50 values of the last two compounds are within 0.2 log units of each other.
Same read-out and setting: the figure for `CCOC(=O)CSC1=NC(=O)/C(=C/c2ccc(Br)cc2)S1` [ethyl 2-[[(5Z)-5-[(4-bromophenyl)methylidene]-4-oxo-1,3-thiazol-2-yl]sulfanyl]acetate] is 6.26.

The same experiment, now with this note: pH 7.4; 4 °C.
The compound `Cc1ccc(-c2nc(N3CCOCC3)s[n+]2-c2ccccc2)cc1` [SMR000225370] had a negative-log EC50 (pEC50) of 7.70.
On the same count and under the same terms, the figure for `CNCc1ccccc1Sc1ccc(O)c(O)c1` [SMR000230497] is 4.50; for `Oc1ccc(NCc2ccccc2OCc2ccccc2)cc1` [SMR000231540] it is 5.95.
The same measure, in the same setting: the result for `CN=c1scc(-c2cccs2)n1N=Cc1ccc(O)c(O)c1O` [SMR000242177] reads 5.24; that for `Nc1c(C(=O)NCC2CCCO2)sc2nc3c(c(-c4ccco4)c12)CC/C3=C\c1ccco1` (stereo not drawn) [SMR000259502], 6.06; that for `Nc1c(C(=O)NC2CC2)sc2nc3c(c(-c4ccco4)c12)CC/C3=C/c1ccco1` [SMR000259554], 5.96.
On the same count and under the same terms, the result for `Cc1nc2scc(-c3ccccc3)c2c(=O)n1N=C1C=CC(=O)C=C1` [SMR000285999] reads 6.25.
Turning to `C=C[S+]([O-])c1sc(Cl)c(N2CCOCC2)c1[N+](=O)[O-]` (stereo not drawn) [SMR000293370], the pEC50 was 6.07. The pEC50 values of the last two compounds are within 0.2 log units of each other.
Same read-out and setting: the result for `CC1CC(=Cc2cccc(F)c2)C2=NC(=S)NC(c3cccc(F)c3)C2C1` (stereo not drawn) [SMR000306148] reads 4.82; that for `CC(=NNC(=O)c1cc(O)c(O)c(O)c1)c1ccc([N+](=O)[O-])cc1` [SMR000312589], 5.17; that for `O=C(O)c1ccc(NC2=CC(=NS(=O)(=O)c3ccccc3)c3ccccc3C2=O)cc1` [SMR000313157], 5.04.
The same measure, in the same setting: the result for `CCN1/C(=C/C(C)=C/c2sc3ccccc3[n+]2CC)Sc2ccccc21` [SMR000354813] reads 4.39; that for `CCN(CC)C(=O)COC(=O)c1cc(-c2ccco2)nc2ccccc12` [SMR000377201], 5.99.
As for `Cn1c(=O)c(C(=O)COC(=O)c2cc(-c3ccco3)nc3ccccc23)c(N)n(Cc2ccccc2)c1=O` [[2-(6-amino-1-benzyl-3-methyl-2,4-dioxopyrimidin-5-yl)-2-oxoethyl] 2-(furan-2-yl)quinoline-4-carboxylate], the negative-log EC50 (pEC50) was 5.75.
Still for that read-out and setting: the result for `CCOC(=O)C1=C(Cc2ccc(C)cc2)C(=O)c2ccccc2C1=O` [ethyl 3-[(4-methylphenyl)methyl]-1,4-bis(oxidanylidene)naphthalene-2-carboxylate] reads 5.49.
